Test results taken from patent US20210267201A1, “HERBICIDAL MIXTURES COMPRISING ISOXAFLUTOLE, DIMETHENAMID OR DIMETHENAMID-P AND AN IMIDAZOLINONE HERBICIDE; AND THEIR USE IN SOYBEAN AND COTTON CULTURES” (BASF SE, priority 2018, published 2021).

Test system: AVEFA (Avena fatua, wild oat)
Test: greenhouse experiment: herbicidal action, scale from 0 to 100, synergism by Colby's equation
Format: in vivo
Conditions: scale 0 to 100, test period 20 days
Protocol: However, the weed control afforded by the compounds, mixtures or compositions is not limited to these species. The analysis of synergism or antagonism between the mixtures or compositions is determined using Colby's equation.
Synergism can be described as an interaction where the combined effect of two or more compounds is greater than the sum of the individual effects of each of the compounds. The presence of a synergistic effect in terms of percent control, between two mixing partners (X and Y) can be calculated using the Colby equation (Colby, S. R., 1967, Calculating Synergistic and Antagonistic Responses in Herbicide Combinations, Weeds, 15, 21-22):
When the observed combined control effect is greater than the expected (calculated) combined control effect (E), then the combined effect is synergistic.
The culture containers used were plastic flowerpots containing loamy sand with approximately 3.0% of humus as the substrate. The seeds of the test plants were sown separately for each species. For pre-emergence treatment, the active ingredients, which had been suspended or emulsified in water, were applied directly after sowing by means of finely distributing nozzles. […] During this time, the plants were tended, and their response to the individual treatments was evaluated. […]

CS(=O)(=O)c1cc(C(F)(F)F)ccc1C(=O)c1cnoc1C1CC1 [Isoxaflutole, isoxaflutole]
Herbicidal action against AVEFA, Found (Isoxaflutole 12.5 g/ha alone): 0
Herbicidal action against AVEFA, Found (Isoxaflutole 25 g/ha alone): 0
